Data from patent publication US20130059805A1, “COMPOSITION COMPRISING AN AMORPHOUS NON-CRYSTALLINE GLASS FORM OF AZITHROMYCIN” (North-West University, priority 2009, published 2013).
In brackets after ≈: the same amount, converted by molar mass. Like-named read-outs stand apart in the source and are kept apart here. One block for each compound: values may come before it.

Assays:
[1] = Solubility in four media (excess solid, 37 degrees Celsius, 24 h, HPLC assay); assay type: physicochemical; conditions: for solubility at 24 h: 37 °C, thermodynamic from solid
Description: In further analysis of the amorphous non-crystalline glass form (Form-II) of azithromycin, each of five replicate test tubes were filled with an excess of amorphous non-crystalline glass form (Form-II) of azithromycin and 10 ml of solubility medium. The process was performed with each of the following mediums: 0.1 N hydrochloric acid (pH 1), acetate buffer (pH 4.5), phosphate buffer (pH 6.8) and distilled water. This method was also used for testing the prior art azithromycin dihydrate.
The test tubes were then fixed to a rotating axis (54 rpm) and submerged in a water bath at 37 degrees Celsius±2 degrees Celsius for twenty-four hours. The contents of the test tubes were filtered through a 0.45 μm filter and the respective filtrates were subsequently diluted.
The concentrations of the filtrates were determined by HPLC (high performance liquid chromatography) assay. The HPLC assay was performed utilising a mobile phase (600:400) consisting of 8.7 g/L potassium dihydrogen phosphate buffer (pH 4.5) and acetonitrile. A Luna C18 250 mm×4.6 mm column was used with a flow rate of 0.5 mL/min and a wavelength of 210 nm. Validation of this method provided a linear regression r^2 of 0.9999.

[2] = Structural stability study at 40° C. and 75% relative humidity (XRPD, DSC, thermal microscopy); assay type: physicochemical; conditions: 4 week testing period
Excerpt: FIG. 5: is a characteristic XRPD (x-ray powder diffraction pattern) of amorphous non-crystalline glass form (Form-II) of azithromycin taken over a period of time wherein 0 is at time of preparation, 1 is week 1, 2 is week 2, 3 is week 3 and 4 is week 4 (Vertical axis: intensity (Lin (counts)); Horizontal axis: 2 Theta (degrees));
FIG. 12: is a DSC (differential scanning calorimetry) trace of amorphous non-crystalline glass form (Form-II) of azithromycin, taken over a period of time, according to one embodiment of the invention wherein 0 is at time of preparation, 1 is week 1, 2 is week 2, 3 is week 3 and 4 is week 4 (Vertical axis: Heat flow (mW); Horizontal axis: temperature (degrees Celsius));
FIG. 13: is a thermal microscopy image (at 25 degrees Celsius) of amorphous non-crystalline glass form (Form-II) of azithromycin taken in the fourth week after preparation according to one embodiment of the invention; and […]

[3] = background statement; cited from earlier work
[4] = oral; cited from earlier work
[5] = 0.1 N HCl; cited from earlier work

solubility in 0.1 N HCl ([1]; 0.1 N HCl (pH 1), 37 degrees Celsius): 45.703 ± 0.917 mg/mL (≈ 61 mM)
solubility in acetate buffer (pH 4.5) ([1]; acetate buffer pH 4.5, 37 degrees Celsius): 18.045±0.485 mg/mL
solubility in distilled water ([1]; distilled water, 37 degrees Celsius): 1.357 ± 0.233 mg/mL (≈ 1.81 mM)
solubility in phosphate buffer (pH 6.8) ([1]; phosphate buffer pH 6.8, 37 degrees Celsius): 10.968±0.182 mg/mL
structural stability (solid form) [2]: structurally stable
Structure (SMILES): CC[C@H]1OC(=O)[C@H](C)[C@@H](O[C@H]2C[C@@](C)(OC)[C@@H](O)[C@H](C)O2)[C@H](C)[C@@H](O[C@@H]2O[C@H](C)C[C@H](N(C)C)[C@H]2O)[C@](C)(O)C[C@@H](C)CN(C)[C@H](C)[C@@H](O)[C@]1(C)O

solubility at 24 h ([1]; 0.1 N hydrochloric acid, simulated gastric fluid, 0.1 N HCl (pH 1), 37 degrees Celsius, read-out: solubility in 0.1 N HCl): 40.81 ± 0.368 mg/mL
solubility at 24 h ([1]; aqueous buffer, acetate buffer pH 4.5, 37 degrees Celsius, read-out: solubility in acetate buffer (pH 4.5)): 17.97 ± 0.113 mg/mL
solubility at 24 h ([1]; aqueous buffer, phosphate buffer pH 6.8, 37 degrees Celsius, read-out: solubility in phosphate buffer (pH 6.8)): 8.442 ± 0.069 mg/mL
solubility at 24 h ([1]; distilled water, 37 degrees Celsius, read-out: solubility in distilled water): 0.148 ± 0.028 mg/mL
Structure (SMILES): CC[C@H]1OC(=O)[C@H](C)[C@@H](O[C@H]2C[C@@](C)(OC)[C@@H](O)[C@H](C)O2)[C@H](C)[C@@H](O[C@@H]2O[C@H](C)C[C@H](N(C)C)[C@H]2O)[C@](C)(O)C[C@@H](C)CN(C)[C@H](C)[C@@H](O)[C@]1(C)O [azithromycin raw material (dihydrate), azithromycin dihydrate]
water solubility (in words) [3]: poorly soluble in water

Structure (SMILES): CC[C@H]1OC(=O)[C@H](C)[C@@H](O[C@H]2C[C@@](C)(OC)[C@@H](O)[C@H](C)O2)[C@H](C)[C@@H](O[C@@H]2O[C@H](C)C[C@H](N(C)C)[C@H]2O)[C@](C)(O)C[C@@H](C)CN(C)[C@H](C)[C@@H](O)[C@]1(C)O [azithromycin, (2R,3S,4R,5R,8R,10R,11R,12S,13S,14R)-2-ethyl-3,4,10-trihydroxy-3,5,6,8,10,12,14-heptamethyl-15-oxo-11-{[3,4,6-trideoxy-3-(dimethylamino)-β-D-xylo-hexopyranosyl]oxy}-1-oxa-6-azacyclopentadec-13-yl 2,6-dideoxy-3-C-methyl-3-O-methyl-α-L-ribo-hexopyranoside]
bioavailability (share of an orally administered dose reaching systemic circulation) [4]: 38%
acid stability [5]: acid-stable
